Data as given in publication PMC6792352, “Limited Chemical Structural Diversity Found to Modulate Thyroid Hormone Receptor in the Tox21 Chemical Library” (Environmental Health Perspectives, 2019).
Where a name gives a salt, the structure may show the parent alone.

Experiment: in vitro
Conditions: rat, gh3-tre-luc cells, AC50 (uM) modified / 1000

Point of comparison: `CCN(CC)CCN1C(=O)CN=C(c2ccccc2F)c2cc(Cl)ccc21` [Flurazepam], CC50 at 24 h 23.1 µM. Against it:
- CCOC(=O)[C@H](CCc1ccccc1)N[C@@H](C)C(=O)N(CC(=O)O)C1Cc2ccccc2C1 [Delapril hydrochloride] — higher, > 50 µM
- CCCCCCCCCCCCOS(=O)(=O)O [Sodium dodecyl sulfate] — higher, > 90 µM
- O=C(OCc1ccccc1)c1ccc(O)cc1 [Benzylparaben] — higher, > 90 µM
- CNC[C@H](O)c1ccc(O)c(O)c1 [Epinephrine bitartrate] — higher, > 90 µM
- COc1cc(CC(C)N)c(OC)cc1Br (stereo not shown) [4-Bromo-2,5-dimethoxyamphetamine hydrochloride] — 1.8-fold higher, 40.8 µM
- CC1=C(/C=C/C(C)=C/C=C/C(C)=C/C=O)C(C)(C)CCC1 [Retinal] — 1.9-fold lower, 12.4 µM
- Clc1ccc(Cl)c(Cl)c1 [1,2,4-Trichlorobenzene] — higher, > 90 µM
- Nc1nc(N)c2nc(-c3ccccc3)c(N)nc2n1 [Triamterene] — higher, > 90 µM
- NCc1cccnc1 [3-(Aminomethyl)pyridine] — higher, > 90 µM
- SC1CCCC1 [Cyclopentanethiol] — higher, > 90 µM
- CC1(C)C(=O)NC(=O)NC1=O [5,5-Dimethylbarbituric acid] — higher, > 90 µM
- Nc1nc2ccccc2[nH]1 [2-Aminobenzimidazole] — higher, > 90 µM
- CCCCCCCCCCCCCCCCCCNC(=O)OC1CCN(C(=O)OC[C@H](COC(=O)N(Cc2cccc[n+]2CC)C(=O)c2ccccc2OC)OC)CC1 [Minopafant] — 1.7-fold lower, 13.6 µM
- COC(=O)N(OC)c1ccccc1COc1ccn(-c2ccc(Cl)cc2)n1 [Pyraclostrobin] — 2.6-fold higher, 59.8 µM
- O=C1CCCC1 [Cyclopentanone] — higher, > 90 µM
- CCCCCCCCCCCCCCCC[N+](C)(C)CCN(Cc1ccc(OC)cc1)c1ncccn1 [Thonzonium bromide] — 1.6-fold lower, 14.6 µM
- CC(C)(C)C(=O)CCl [1-Chloropinacolone] — higher, > 90 µM
- O=C1O[C@H](CO)[C@@H](O)[C@H](O)[C@H]1O [Gluconolactone] — higher, > 90 µM
- CC(C)CCOC(=O)c1ccccc1 [Isopentyl benzoate] — higher, > 90 µM
- CCN(C=O)CC [Diethylformamide] — higher, > 90 µM
- CCCCn1cc[n+](C)c1C [1-Butyl-2,3-dimethylimidazolium chloride] — higher, > 90 µM
- O=C1CCCCCCCCCCCC(=O)OCCO1 [1,4-Dioxacycloheptadecane-5,17-dione] — higher, > 90 µM
- CC(O)(CS(=O)(=O)c1ccc(F)cc1)C(=O)Nc1ccc(C#N)c(C(F)(F)F)c1 (stereo not shown) [Bicalutamide] — higher, > 50 µM
- CN1CCN2c3ccccc3Cc3ccccc3C2C1 (stereo not shown) [Mianserin] — within 1.5-fold, 20.6 µM
- CCN(CC)C(=O)N(CC)CC [Tetraethylurea] — higher, > 90 µM
- NNc1nnc(NN)c2ccccc12 [Dihydralazine] — higher, > 50 µM
- CCOC(=O)/C=C(C)/C=C/C=C(C)/C=C/c1c(C)cc(OC)c(C)c1C [Etretinate] — higher, > 50 µM
- CCCCCC=O [Hexanal] — higher, > 100 µM
- COc1ccc(/C=C/S(=O)(=O)NC(=O)c2ccc(C)cc2Cl)cc1 [PharmaGSID_48514] — higher, > 90 µM
- CCCCNc1ccc(C(=O)OCCOCCOCCOCCOCCOCCOCCOCCOCCOC)cc1 [Benzonatate] — not separable, > 20 µM
- ClCCl [Dichloromethane] — higher, > 90 µM
- O=C(O)CN(CCOCCOCCN(CC(=O)O)CC(=O)O)CC(=O)O [Egtazic Acid] — higher, > 50 µM
- CC(C)C(C)(C)C(C)(C)C(C)(C)S [tert-Dodecanethiol] — higher, > 90 µM
- NS(=O)(=O)c1ccccc1OC(F)(F)F [2-(Trifluoromethoxy)benzenesulfonamide] — higher, > 90 µM
- CN1C(=O)N(c2ccccc2Br)Cc2cnc(Nc3ccc4c(c3)OCC(CO)O4)nc21 (stereo not shown) [PharmaGSID_48519] — 1.6-fold higher, 37.2 µM
- CC(=O)Nc1ccc(S(=O)(=O)Nc2ccc([N+](=O)[O-])cc2)cc1 [Sulfanitran] — higher, > 50 µM
- C=CCCCCCCCCC(=O)OCCCC [Butyl undec-10-enoate] — higher, > 90 µM
- C=C(C)C(=O)OCCCCCCCCCCCCCCCCCC [Stearyl methacrylate] — not separable, > 20 µM
- c1ccc(Nc2ccccc2)cc1 [Diphenylamine] — higher, > 90 µM
- CC(=O)Nc1ccc(OC(=O)c2ccccc2OC(C)=O)cc1 [Benorylate] — higher, > 50 µM
- CC(=O)CC/C=C(\C)CCC=C(C)C [6,10-Dimethyl-5,9-undecadiene-2-one] — higher, > 90 µM
- CCN1CCN(C(=O)N[C@@H](C(=O)N[C@@H]2C(=O)N3C(C(=O)O)=C(CSc4nnnn4C)CS[C@H]23)c2ccc(O)cc2)C(=O)C1=O [Cefoperazone sodium] — higher, > 50 µM
- O=P(O)(OCc1ccccc1)OCc1ccccc1 [Dibenzyl phosphate] — higher, > 90 µM
- CCOC(=O)CC(C(C)=O)C(C)=O [Ethyl 3-acetyl-4-oxopentanoate] — higher, > 90 µM
- COC(=O)c1cccnc1 [Methyl nicotinate] — higher, > 90 µM
- CC1CNc2c(cccc2S(=O)(=O)N[C@@H](CCCNC(=N)N)C(=O)N2CC[C@@H](C)C[C@@H]2C(=O)O)C1 (stereo partly shown) [Argatroban] — higher, > 50 µM
- O=C(O)c1cccc(-c2noc(-c3ccccc3F)n2)c1 [Ataluren] — higher, > 50 µM
- CC(C)(Oc1ccc(Cl)cc1)C(=O)O [Clofibric acid] — higher, > 50 µM
- CC(COc1ccccc1)NN (stereo not shown) [Phenoxypropazine] — higher, > 50 µM
- CC(=O)Nc1c(I)c(C(=O)N[C@H]2C(O)O[C@H](CO)[C@@H](O)[C@@H]2O)c(I)c(N(C)C(C)=O)c1I (stereo partly shown) [Metrizamide] — not separable, > 20 µM
- O=C(O)c1ccc(O)c(O)c1 [3,4-Dihydroxybenzoic acid] — higher, > 90 µM
- OC[C@@H](O)C(O)[C@H](O)CO [D-Arabinitol] — higher, > 50 µM
- COc1cc(C(=O)OCCCN2CCCN(CCCOC(=O)c3cc(OC)c(OC)c(OC)c3)CC2)cc(OC)c1OC [Dilazep] — 3-fold lower, 7.82 µM
- CCCOC/C(=N\c1ccc(Cl)cc1C(F)(F)F)n1ccnc1 [Triflumizole] — 2.5-fold higher, 58.4 µM
- CCCN(CCC)c1c([N+](=O)[O-])cc(C(F)(F)F)c(N)c1[N+](=O)[O-] [Prodiamine] — 1.6-fold lower, 14.5 µM
- Clc1ccc(C2(Cn3cncn3)CC(Br)CO2)c(Cl)c1 (stereo not shown) [Bromuconazole] — higher, > 90 µM
- Cc1cccc(C)c1NC(=O)/N=C1\CCCN1C [Xilobam] — higher, > 50 µM
- CC1(C)C(=O)N(Br)C(=O)N1Cl [3-Bromo-1-chloro-5,5-dimethylhydantoin] — higher, > 90 µM
- CN1c2c(nc(N)[nH]c2=O)NCC1CNc1ccc(C(=O)N[C@@H](CCC(=O)O)C(=O)O)cc1 (stereo partly shown) [Disodium 5-methyltetrahydrofolate] — higher, > 50 µM
- C1CCOC1 [Tetrahydrofuran] — higher, > 100 µM
- C1CCC(C(CC2CCCCN2)C2CCCCC2)CC1 (stereo not shown) [Perhexiline maleate] — 5.3-fold lower, 4.32 µM
- CCOC(=O)C(Br)c1ccccc1 (stereo not shown) [Ethyl bromophenylacetate] — higher, > 90 µM
- CC(O)COc1ccccc1 (stereo not shown) [1-Phenoxy-2-propanol] — higher, > 90 µM
- CCCCCOC(C)=O [Pentyl acetate] — higher, > 90 µM
- O=C(O)COc1ccc2ccccc2c1 [2-Naphthoxyacetic acid] — higher, > 90 µM
- Oc1ccc(-c2ccc(O)cc2)cc1 [4,4'-Biphenyldiol] — higher, > 90 µM
- O=C(c1ccc(OCCN2CCCCC2)cc1)c1c(-c2ccc(O)cc2)sc2cc(O)ccc12 [Raloxifene] — 6-fold lower, 3.84 µM
- CC(Oc1cc(Cl)ccc1Cl)C(=O)O (stereo not drawn) [alpha-(2,5-Dichlorophenoxy)propionic acid] — higher, > 90 µM
- CCN(CC)CCOc1ccc(C(O)(Cc2ccc(Cl)cc2)c2ccc(C)cc2)cc1 (stereo not shown) [Triparanol] — 2.6-fold lower, 8.76 µM
- C[C@H](CN1CCCC1)C(=O)c1ccc(C(F)(F)F)cc1 [Lanperisone hydrochloride] — higher, > 50 µM
- CC1(C)S[C@@H]2[C@H](NC(=O)C(C(=O)Oc3ccc4c(c3)CCC4)c3ccccc3)C(=O)N2[C@H]1C(=O)O (stereo partly shown) [Carbenicillin indanyl] — higher, > 50 µM
- CN(N=O)c1ccc([N+](=O)[O-])cc1 [N-Nitroso-N-methyl-4-nitroaniline] — higher, > 90 µM
- CCCCCCCC=O [Octanal] — higher, > 90 µM
- CCCCCCCO [1-Heptanol] — higher, > 90 µM
- CC(=O)OC(C)(C)C1CC=C(C)CC1 (stereo not drawn) [alpha-Terpinyl acetate] — higher, > 90 µM
- CCSC(=O)Cl — higher, > 100 µM
- CC/C=C/CCCCCCCCC1CC(=O)OC1=O (stereo not shown) [(Tetrapropenyl)succinic anhydride] — higher, > 90 µM
- O=[N+]([O-])CCO [2-Nitroethanol] — higher, > 100 µM
- C[C@]12CC[C@@H]3c4ccc(O)cc4CC[C@H]3[C@@H]1C[C@@H](O)[C@@H]2O [Estriol] — higher, > 90 µM

Same assay, conditions: rat, gh3-tre-luc cells, AC50 (uM) modified / 1000, Tox21_110001=Tox21_111100; viability, 1 nM T3 present, 24 h

In the case of `Oc1cc(Cl)c(Cl)cc1Cl` [2,4,5-Trichlorophenol], the CC50 at 24 h is reported as greater than 50 µM.

Same assay, conditions: rat, gh3-tre-luc cells, AC50 (uM) modified / 1000, Tox21_110001=Tox21_112123; viability, 1 nM T3 present, 24 h

Work on `CNC(=O)NC(O)C(Cl)(Cl)Cl` (stereo not shown) [Mecloralurea] yielded a CC50 at 24 h greater than 50 µM.

Same assay, conditions: rat, gh3-tre-luc cells, AC50 (uM) modified / 1000, Tox21_110001=Tox21_112153; viability, 1 nM T3 present, 24 h

With `CCC(C)(S(=O)(=O)CC)S(=O)(=O)CC` [Sulfonethylmethane] the CC50 at 24 h was greater than 50 µM.

Same assay, conditions: rat, gh3-tre-luc cells, AC50 (uM) modified / 1000, Tox21_110001=Tox21_201545; viability, 1 nM T3 present, 24 h

In the case of `Oc1cc(Cl)c(Cl)cc1Cl` [2,4,5-Trichlorophenol], the CC50 at 24 h is reported as greater than 90 µM.

Same assay, conditions: rat, gh3-tre-luc cells, AC50 (uM) modified / 1000, Tox21_110001=Tox21_201715; viability, 1 nM T3 present, 24 h

`CCCCCCCCCl` [1-Chlorooctane] gave a CC50 at 24 h greater than 90 µM.

Same assay, conditions: rat, gh3-tre-luc cells, AC50 (uM) modified / 1000, Tox21_110001=Tox21_201837; viability, 1 nM T3 present, 24 h

With `CN(C)P(=O)(N(C)C)N(C)C` [Hexamethylphosphoramide] the CC50 at 24 h was greater than 90 µM.

Same assay, conditions: rat, gh3-tre-luc cells, AC50 (uM) modified / 1000, Tox21_110001=Tox21_302106; viability, 1 nM T3 present, 24 h

Work on `C#CC1(O)CCCCC1` [1-Ethynylcyclohexanol] yielded a CC50 at 24 h greater than 90 µM.

Same assay, conditions: rat, gh3-tre-luc cells, AC50 (uM) modified / 1000, Tox21_110001=Tox21_303401; viability, 1 nM T3 present, 24 h

In the case of `O=P(O)(Oc1ccccc1)Oc1ccccc1` [Diphenyl phosphate], the CC50 at 24 h is reported as greater than 90 µM.
